Measured values reported in patent US20240247031A1, “COMPOSITION FOR TREATING CANCER CONTAINING TELOMERASE-TARGETING GNRH ANTAGONIST-DERIVED PEPTIDE HS1002” (Research & Business Foundation Sungkyunkwan University, priority 2023, published 2024).

Experiments:
hTERT = hTERT mRNA and protein expression, western blot and qPCR (FIG. 10, 11); type: cell-based, human; conditions: LNCaP, different concentrations, western blot
Description: To analyze the changes in the hTERT expression level and telomerase activity by the treatment with the produced peptides, real-time PCR was performed. Total RNA was extracted from cells by using an Easy-blue RNA extraction reagent (Intron, Korea), and subsequently, the extracted RNA was reverse transcribed using M-ML V reverse transcriptase (Invitrogen, CA). The PCR reaction was then performed using a LightCycler 480 SYBR Green I Master (Roche, Germany) according to the manufacturer's instructions. […]
Quantitative real-time RT-PCR (qRT-PCR) was performed using a Power SYBR Green 1-Step Kit and an ABI 7000 Real Time PCR System (Applied Biosystems, Carlsbad, CA, USA) according to the manufacturer's indications. […] The results were expressed as the ratio of target PCR product to GAPDH product. […] The quantification was performed using the ΔΔCT method (Applied Biosystems) with the RQ manager 1.2 software. Data are expressed as mean±SD. […]
After treatment with GV1001, HS1001, HS1002, and GnRH, the changes in hTERT mRNA and protein expression level were investigated for each peptide. […] To investigate the telomerase activity reducing effect of the peptides, prostate cancer cell lines (LNCaP) were treated with each drug at 300 μM every 24 h for a total of 72 h and then measured for telomerase activity through qPCR. […]

[1] = tested on: c-Myc, AKT, ERK1/2 in LNCaP tumor xenografts; test: Western blot of c-Myc and signaling proteins in LNCaP-xenografted tumors (FIG. 14); type: in vivo, mouse; conditions: LNCaP xenograft; HS1002 1 mg/kg/day, LA 0.1 mg/kg/day s.c.
Description: The cells and tumor tissues were homogenized using the PRO-PREP™ extraction solution (iNtRON Biotechnology, Seongnam, Korea). After incubation, the homogenate was centrifuged at 16,000×g for 20 min at 4° C., and the supernatant was collected for western blot analysis. Subsequently, an equivalent quantity of protein was separated using sodium dodecyl sulfate polyacrylamide gels and transferred onto a polyvinylidene difluoride (PVDF) membrane. The PVDF membranes were incubated with the primary antibodies overnight at 4° C., washed with tris-buffered saline, and then incubated with HRP-conjugated anti-mouse or anti-rabbit antibodies. The bands were visualized using a ChemiDoc imaging system (Bio-Rad, Hercules, CA, USA). The band intensities were determined using an Image J software.
All mice were purchased from Central Lab Animal Inc. ([…]). They were raised in a 12 h environmental light/dark cycle with controlled temperature (22±2° C.) conditions. The experimental protocol was approved by the Sungkyunkwan University Institutional Animal Care and Use Committee (SKKUIACUC2021-06-27-1, SKKUIACUC2023-01-07-1). For the establishment of tumors, LNCaP (1×10^7), MC38 (2×10^5), and 4T1 (1×10^6) suspended in serum-free media containing 50% Matrigel was subcutaneously administered in the right flank of mice, respectively. The tumor volumes (V) were calculated using a caliper and the standard equation: V (mm^3)=0.52 (ab^2) (a=length, b=width). Once the tumor reached 100-200 mm^3, the mice were randomly divided into different groups and subcutaneously injected with a vehicle or each peptide every day.
To investigate the anticancer effect of HS1002, the present inventors observed the volume of cancer cells after transplanting the cancer cells into experimental animals. Specifically, mice (4-week-old male BALB/c nude mice; Central Lab. Animal Inc., Seoul, Korea) were prepared, and tumor cells (1×10^7 LNCaP cells) suspended in 1 mL of a serum-free medium containing 50% Matrigel were percutaneously injected into the upper flank of each nude mouse. When the tumor cell volume reached about 200 mm^3, the mice were randomly assigned to a vehicle control group, a leuprolide acetate-treated group, and test groups (GV1001-treated group and HS1002-treated group), respectively. Leuprolide acetate (0.1 mg/kg/day) and GV1001 and HS1002 (1 mg/kg/day) were injected subcutaneously for 13 days.

With `CCNC(=O)[C@@H]1CCCN1C(=O)[C@@H](NC(=O)[C@H](Cc1ccccc1)NC(=O)[C@H](CCCNC(=N)N)NC(=O)[C@H](CC(C)C)NC(=O)[C@H](CCCNC(=N)N)NC(=O)[C@H](Cc1ccc(O)cc1)NC(=O)[C@H](CO)NC(=O)[C@H](Cc1c[nH]c2ccccc12)NC(=O)[C@H](Cc1c[nH]cn1)NC(=O)[C@@H]1CCC(=O)N1)[C@@H](C)CC` [HS1002] as the compound, how does the “hTERT protein expression, concentration dependence” value (hTERT) read?
Its value is “reduced with an increasing concentration”.

What about the “expression of c-Myc in tumor tissue” value [1] of the same compound?
The value was “significantly downregulated”.

And the “expression of p-AKT in tumor tissue” value [1]?
The value was “significantly downregulated”.

And the “expression of p-ERK1/2 in tumor tissue” value [1]?
Its value is “significantly downregulated”.
